In patent US10822345B2 (4SC AG, priority 2015, dated 2020):
pIC50: −log10 of the molar value.

Columns and labels:
[1] = molecular target: Kv1.3 (Homo sapiens (Human), UniProt P22001); assay: Patch-clamp assay for inhibitory activity on Kv1.3 (whole cell recording); format: cell-based; settings: n≥2 per concentration, three or more concentrations
Protocol: Patch-Clamp Assay for Inhibitory Activity on Kv1.3
For a description of a Kv1.3 patch-clamp assay, see Grissmer et al., Mol. Pharmacol. 1994, 45, 1227; whole cell patch-clamp recording was performed with n≥2 individual experiments at each compound concentration using different cells. Three or more different concentrations were determined per dose response curve.

[2] = system: female Dark Agouti rats; assay: Pristane-induced arthritis (PIA) model; format: in vivo, rat; settings: MTX 0.05 mg/kg i.p., sid, DAY16 to DAY30; maximum AI=16; controls AI around 14; p=0.001
Protocol: Pristane-Induced Arthritis (PIA) Model
Arthritis was induced in female Dark Agouti rats by intradermal injection of 150 μL/rat pristane into the base of the tail on DAY0, according to Vingsbo et al., Am. J. Pathol. 1996, 149, 1675. Compound treatment was started on DAY16 and continued until DAY30, dosing Example 53 at 60 mg/kg, p.o., sid, and Example 34 at 45 mg/kg, p.o., bid, each in a lipophilic formulation. As a positive control, methotrexate (MTX) was dosed i.p., sid, with 0.05 mg/kg, also starting DAY16. Arthritis development was monitored daily by a macroscopic scoring system for the four limbs ranging from 0 to 4 (0=no visible effects of arthritis; 1=edema and/or erythema of one digit; 2=edema and/or erythema of two joints; 3=edema and/or erythema of more than two joints; 4=severe arthritis of the entire paw and digits, associated with ankylosis and deformity of the paw.), resulting in an Arthritic Index (AI) reflecting the sum of scores of all 4 limbs per rat (maximum AI=16).
Disease induction in saline-treated and vehicle-treated control animals reached a maximum of AI around 14.

Chain of Kv1.3 (P22001 whole entry): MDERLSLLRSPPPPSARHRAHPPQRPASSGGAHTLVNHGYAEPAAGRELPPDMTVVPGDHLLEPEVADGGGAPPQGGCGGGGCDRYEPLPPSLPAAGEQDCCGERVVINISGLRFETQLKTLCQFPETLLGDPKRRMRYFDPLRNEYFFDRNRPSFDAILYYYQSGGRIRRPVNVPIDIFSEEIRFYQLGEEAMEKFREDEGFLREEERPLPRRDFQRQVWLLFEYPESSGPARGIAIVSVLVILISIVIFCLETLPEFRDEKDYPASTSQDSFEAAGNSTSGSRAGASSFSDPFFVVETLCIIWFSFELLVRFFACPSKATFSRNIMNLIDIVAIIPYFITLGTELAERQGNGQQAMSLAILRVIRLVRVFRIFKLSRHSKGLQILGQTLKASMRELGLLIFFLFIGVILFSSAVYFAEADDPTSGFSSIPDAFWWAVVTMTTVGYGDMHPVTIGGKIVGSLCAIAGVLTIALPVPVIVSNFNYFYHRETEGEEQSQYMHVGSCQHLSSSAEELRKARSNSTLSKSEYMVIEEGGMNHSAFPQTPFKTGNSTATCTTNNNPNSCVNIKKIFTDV

Compound	pIC50 [1]	Arthritic Index (AI) [2]
Cc1coc2c(C)c3oc(=O)cc(-c4ccccc4F)c3cc12 [Example 8, 5-(2-fluorophenyl)-3,9-dimethyl-7H-furo[3,2-g]chromen-7-one]	≥ 6.30	
Cc1c(-c2ccccc2)c2cc3c(C)c(C#N)oc3c(C)c2oc1=O [Example 45]	5.52 to 5.82	
Cc1c(-c2ccccc2F)c2cc3c(C)coc3c(C)c2[nH]c1=O [Example 30, 5-(2-fluorophenyl)-3,6,9-trimethylfuro[3,2-g]quinolin-7(8H)-one]	≥ 6.30	
Cc1c(-c2ccccc2Cl)c2cc3c(C)coc3c(C)c2n(C)c1=O [Example 60, 5-(2-chlorophenyl)-3,6,8,9-tetramethylfuro[3,2-g]quinolin-7(8H)-one]	≥ 6.30	
Cc1c(-c2ccccc2)c2cc3c(C)noc3c(C)c2[nH]c1=O [Example 36, 3,6,9-trimethyl-5-phenylisoxazolo[4,5-g]quinolin-7(8H)-one]	≥ 6.30	
Cc1coc2c(C)c3[nH]c(=O)c(Br)c(-c4ccccc4)c3cc12 [Example 26, 6-bromo-3,9-dimethyl-5-phenylfuro[3,2-g]quinolin-7(8H)-one]	≥ 6.30	
Cc1c(-c2ccccc2)c2cc3c(C)coc3c(C)c2[nH]c1=O [Example 31, 3,6,9-trimethyl-5-phenylfuro[3,2-g]quinolin-7(8H)-one]	≥ 6.30	
Cc1coc2c(C)c3[nH]c(=O)c(Br)c(-c4ccccc4F)c3cc12 [Example 27, 6-bromo-5-(2-fluorophenyl)-3,9-dimethylfuro[3,2-g]quinolin-7(8H)-one]	5.82 to 6.30	
Cc1coc2c(C)c3c(cc12)c(-c1ccccc1)c(Br)c(=O)n3C [Example 33, 6-bromo-3,8,9-trimethyl-5-phenylfuro[3,2-g]quinolin-7(8H)-one]	≥ 6.30	
Cc1c(-c2ccccc2Cl)c2cc3c(C)coc3c(C)c2[nH]c1=O [Example 40, 5-(2-chlorophenyl)-3,6,9-trimethylfuro[3,2-g]quinolin-7(8H)-one]	≥ 6.30	
CCOc1ccccc1-c1c(C)c(=O)oc2c(C)c3occ(C)c3cc12 [Example 10, 5-(2-ethoxyphenyl)-3,6,9-trimethyl-7H-furo[3,2-g]chromen-7-one]	≥ 6.30	
Cc1c(-c2cccnc2)c2cc3c(C)coc3c(C)c2[nH]c1=O [Example 54, 3,6,9-trimethyl-5-(pyridin-3-yl)furo[3,2-g]quinolin-7(8H)-one]	≥ 6.30	
COc1ncccc1-c1c(C)c(=O)oc2c(C)c3occ(C)c3cc12 [Example 62, 5-(2-methoxypyridin-3-yl)-3,6,9-trimethyl-7H-furo[3,2-g]chromen-7-one]	5.82 to 6.30	
Cc1c(-c2ccccc2F)c2cc3c(C)coc3c(C)c2n(C)c1=O [Example 61, 5-(2-fluorophenyl)-3,6,8,9-tetramethylfuro[3,2-g]quinolin-7(8H)-one]	≥ 6.30	
CCc1coc2c(C)c3oc(=O)c(C)c(-c4ccccc4)c3cc12 [Example 16, 3-ethyl-6,9-dimethyl-5-phenyl-7H-furo[3,2-g]chromen-7-one]	≥ 6.30	
CN(Cc1cnc2nc(N)nc(N)c2n1)c1ccc(C(=O)N[C@@H](CCC(=O)O)C(=O)O)cc1 [MTX, methotrexate]		~8.7
COc1ccccc1-c1c(C)c(=O)oc2c(C)c3occ(C)c3cc12 [Example 7, 5-(2-methoxyphenyl)-3,6,9-trimethyl-7H-furo[3,2-g]chromen-7-one]	≥ 6.30	
Cc1c(-c2ccccc2)c2cc3c(C)coc3nc2n(C)c1=O [Example 49, 3,6,8-trimethyl-5-phenylfuro[2,3-b][1.8]naphthyridin-7(8H)-one]	≥ 6.30	
Cc1c(-c2ccccc2F)c2cc3c(C)coc3c(C)c2oc1=O [Example 5, 5-(2-fluorophenyl)-3,6,9-trimethyl-7H-furo[3,2-g]chromen-7-one]	≥ 6.30	
Cc1c(-c2ccccc2)c2cc3c(C)coc3c(C)c2n(C)c1=O [Example 34, 3,6,8,9-tetramethyl-5-phenylfuro[3,2-g]quinolin-7(8H)-one]	≥ 6.30	
Cc1c(-c2ccccc2)c2cc3c(C)csc3c(C)c2oc1=O [Example 43, 3,6,9-trimethyl-4-phenyl-2H-thieno[3,2-g]chromen-2-one]	≥ 6.30	
Cc1c(-c2ccccc2)c2cc3c(C)coc3c(C)c2oc1=O [Example 9, 3,6,9-trimethyl-5-phenyl-7H-furo[3,2-g]chromen-7-one]	≥ 6.30	
Cc1c(-c2cccnc2)c2cc3c(C)coc3c(C)c2oc1=O [Example 53, 3,6,9-trimethyl-5-(pyridin-3-yl)-7H-furo[3,2-g]chromen-7-one]	≥ 6.30	
Cc1c2oc(=O)cc(-c3ccccc3)c2cc2c(C3CC3)coc12 [Example 41, 3-cyclopropyl-9-methyl-5-phenyl-7H-furo[3,2-g]chromen-7-one]	≥ 6.30	
COc1ccccc1-c1cc(=O)oc2c(C)c3occ(C)c3cc12 [Example 1, 5-(2-methoxyphenyl)-3,9-dimethyl-7H-furo[3,2-g]chromen-7-one]	≥ 6.30	
Cc1c(-c2ccccc2)c2cc3c(C)coc3nc2oc1=O [Example 25, 3,6-dimethyl-5-phenyl-7H-furo[2,3-b]pyrano[3,2-e]pyridin-7-one]	≥ 6.30	
Cc1c(-c2ccccc2Cl)c2cc3c(C)coc3c(C)c2oc1=O [Example 11, 5-(2-chlorophenyl)-3,6,9-trimethyl-7H-furo[3,2-g]chromen-7-one]	≥ 6.30	
